In paper PMC9784924, “Antiviral Activity and Crystal Structures of HIV-1 gp120 Antagonists” (International Journal of Molecular Sciences, 2022):
Read-outs that look alike come from different tables or passages of the source.

Target: T1, HIV-1 reverse transcriptase (RT) (HIV-1 M:B_HXB2R, UniProt P04585)
T1 construct: gene gag-pol; enzyme of the Colorimetric Reverse Transcriptase Assay kit (Roche); cut from the Gag-Pol polyprotein; with p51 RT
Type: biochemical
Conditions: n = 2
Text: Colorimetric Reverse Transcriptase Assay (Roche) on HIV-1 reverse transcriptase (RT)

Row | SMILES | IC50 (control) [µM] | IC50 [µM]
1 | CC1(C)CC(NC(=O)C(=O)Nc2ccc(Cl)cc2)CC(C)(C)N1 [NBD-556, reference compound] | > 300 | 
2 | NC[C@H](NC(=O)c1ccc(-c2cc(F)c(Cl)c(F)c2)[nH]1)c1nc(CO)c(CO)s1 [NBD-14208] |  | 5 ± 0.5
3 | NC[C@H](NC(=O)c1ccc(-c2ccc(C(F)(F)F)cn2)[nH]1)c1ncc(CO)s1 [NBD-14204] |  | 8.3 ± 1.2
